Source: patent US20100075965A1, “PI3 KINASE INHIBITORS AND METHODS OF THEIR USE” (Novartis AG, priority 2006, published 2010)
Read-outs that look alike come from different tables or passages of the source.

Assays:
[1] = system: A2780 cells; assay: Viability assay in A2780 (Cell Titer Glo); format: cell-based, human; details: Homo sapiens
Outline: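 A2780 cells (1,000/well, DMEM + 10% FBS) were exposed to 3-fold serial dilutions of compound for 72 hrs at 37° C, 5% CO2. Viable cells were read by Cell Titer Glo luminescence, in duplicate, and EC50 values were derived from the curves.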

[2] = biological target: PI3 K Alpha (Homo sapiens, UniProt P42336); assay: PI3 kinase phosphorylation assays (homogenous solution phase, one step solid phase, ATP depletion/KinaseGlo); format: biochemical
Chain of PI3 K Alpha (P42336 whole entry): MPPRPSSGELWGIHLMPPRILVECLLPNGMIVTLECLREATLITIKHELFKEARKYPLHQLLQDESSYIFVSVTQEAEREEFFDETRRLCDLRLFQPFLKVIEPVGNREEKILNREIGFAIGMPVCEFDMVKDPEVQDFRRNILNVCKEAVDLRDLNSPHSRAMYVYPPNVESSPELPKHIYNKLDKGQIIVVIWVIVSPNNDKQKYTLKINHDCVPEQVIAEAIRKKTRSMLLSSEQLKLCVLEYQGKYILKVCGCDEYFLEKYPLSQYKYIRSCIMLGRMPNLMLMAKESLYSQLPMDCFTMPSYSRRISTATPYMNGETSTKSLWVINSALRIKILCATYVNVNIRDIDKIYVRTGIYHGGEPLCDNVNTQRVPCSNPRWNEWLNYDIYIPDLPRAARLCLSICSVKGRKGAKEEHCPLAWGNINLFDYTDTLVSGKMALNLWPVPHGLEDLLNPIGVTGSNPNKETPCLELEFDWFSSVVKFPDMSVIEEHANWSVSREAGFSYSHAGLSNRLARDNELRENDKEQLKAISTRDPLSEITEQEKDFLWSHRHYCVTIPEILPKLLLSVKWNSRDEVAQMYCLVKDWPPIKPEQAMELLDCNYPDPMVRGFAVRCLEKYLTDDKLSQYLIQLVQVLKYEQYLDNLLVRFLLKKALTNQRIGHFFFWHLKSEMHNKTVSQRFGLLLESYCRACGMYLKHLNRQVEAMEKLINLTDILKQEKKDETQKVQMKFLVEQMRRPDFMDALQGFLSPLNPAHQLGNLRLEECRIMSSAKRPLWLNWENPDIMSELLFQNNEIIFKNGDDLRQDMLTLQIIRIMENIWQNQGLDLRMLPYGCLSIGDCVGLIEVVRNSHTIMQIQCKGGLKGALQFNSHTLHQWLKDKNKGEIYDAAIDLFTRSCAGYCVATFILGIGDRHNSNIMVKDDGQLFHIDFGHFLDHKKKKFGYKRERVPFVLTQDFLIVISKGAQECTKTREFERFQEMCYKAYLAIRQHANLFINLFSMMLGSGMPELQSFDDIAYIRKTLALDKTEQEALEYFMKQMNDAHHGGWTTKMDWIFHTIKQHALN
Chain of PI3 K Alpha (P27986 whole entry partner): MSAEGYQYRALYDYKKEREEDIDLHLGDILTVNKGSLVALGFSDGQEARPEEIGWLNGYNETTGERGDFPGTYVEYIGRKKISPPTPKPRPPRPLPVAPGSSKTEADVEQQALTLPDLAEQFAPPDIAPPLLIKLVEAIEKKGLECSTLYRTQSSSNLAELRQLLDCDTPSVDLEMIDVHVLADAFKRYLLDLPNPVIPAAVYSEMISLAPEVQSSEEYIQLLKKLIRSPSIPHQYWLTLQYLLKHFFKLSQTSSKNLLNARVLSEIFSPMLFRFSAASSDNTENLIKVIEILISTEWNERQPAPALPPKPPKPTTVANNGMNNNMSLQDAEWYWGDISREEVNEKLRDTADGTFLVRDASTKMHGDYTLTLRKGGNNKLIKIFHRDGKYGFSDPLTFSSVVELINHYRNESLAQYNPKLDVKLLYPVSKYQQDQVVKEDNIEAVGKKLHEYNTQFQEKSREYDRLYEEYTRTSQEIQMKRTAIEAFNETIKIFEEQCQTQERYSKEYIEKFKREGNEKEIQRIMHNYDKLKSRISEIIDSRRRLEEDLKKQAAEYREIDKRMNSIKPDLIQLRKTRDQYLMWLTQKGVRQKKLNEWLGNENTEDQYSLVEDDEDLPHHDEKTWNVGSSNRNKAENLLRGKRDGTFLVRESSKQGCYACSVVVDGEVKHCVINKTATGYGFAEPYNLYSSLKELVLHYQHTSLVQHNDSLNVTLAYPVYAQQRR

[3] = system: pSer473-Akt in A2780 cells; assay: pSer473 Akt assay to monitor PI3K pathway in A2780 cells (MSD); format: cell-based; details: Homo sapiens
Protocol: In this method, an assay for measuring the PI3K-mediated pSer^473-Akt status after treatment with representative inhibitor compounds of the preferred embodiments is described.
A2780 cells were cultured in DMEM supplemented with 10% FBS, L-glutamine, sodium pyruvate, and antibiotics. Cells were plated in the same medium at a density of 15,000 cells per well into 96 well tissue culture plates, with outside wells vacant, and allowed to adhere overnight.
Test compounds supplied in DMSO were diluted further into DMSO at 500 times the desired final concentrations before dilution into culture media to 2 times the final concentrations. Equal volumes of 2× compounds in media were added to the cells in 96 well plates and incubated at 37° C. for one hour. The media and compounds were then removed, the plates chilled and cells lysed in a lysis buffer (150 mM NaCl, 20 mM Tris pH 7.5, 1 mM EDTA, 1 mM EGTA, 1% Triton X-100) supplemented with phosphatase and protease inhibitors. After thorough mixing, lysates were transferred to both pSer473Akt and total Akt assay plates from Meso Scale Discovery (MSD), and incubated overnight with shaking at 4° C. The plates were washed with 1×MSD wash buffer and the captured analytes detected with secondary antibodies. After incubation with the secondary antibody at room temperature for 1-2 hours, the plates were washed again and 1.5× concentration of Read Buffer T (MSD) was added to the wells.
The assays were read on a SECTOR Imager 6000 instrument (Meso Scale Discovery). Ratios of the signal from pSer473Akt and total Akt assays were used to correct for any variability and the percent inhibition of pSer473Akt from the total signal seen in cells treated with compound versus DMSO alone was calculated and used to determine EC50 values for each compound as shown in Tables 1 and 2 in the column labeled “A2780 pAKT473 EC50”.

[4] = A2780 cells, read-out: A2780 Cell prolif. EC50
[5] = A2780 cells, read-out: A2780 pAKT 473 EC50
[6] = A2780 cells, 72 hrs, read-out: A2780 Cell prolif. EC50
[7] = ATP depletion assay, read-out: PI3 K Alpha IC50
[8] = 1 h, A2780 cells, one hour incubation, read-out: A2780 pAKT473 EC50

SMILES: CC(=O)Nc1cn2cc(-c3cnc(N)c(/C=N/N(C)C)c3)ccc2n1 [Example 204, (E)-N-(6-(6-amino-5-((2,2-dimethylhy-drazono)methyl)pyridin-3-yl)imidazo[1,2-a]pyridin-2-yl)acetamide]
- EC50 [1, 4]: < 10 µM
- IC50 ([2]; read-out: PI3K Alpha IC50): < 1 µM
- EC50 [3, 5]: < 1 µM

SMILES: CC(=O)Nc1nc2ccc(-c3cnc(N)c(C(F)(F)F)c3)cn2c1C#Cc1ccccc1 [Example 23, N-[6-(6-Amino-5-trifluoromethyl-pyridin-3-yl)-3-phenylethynyl-imidazo[1,2-a]pyridin-2-yl]-acetamide]
- EC50 [1, 4]: < 10 µM
- IC50 ([2]; read-out: PI3K Alpha IC50): < 1 µM
- EC50 [3, 5]: < 1 µM

SMILES: Nc1ncc(-c2ccc3nc(NC(=O)CO[C@H]4CCNC4)cn3n2)cc1C(F)(F)F [Example 82, (S)-N-(6-(6-amino-5-(trifluoromethyl)pyridin-3-yl)imidazo[1,2-b]pyridazin-2-yl)-2-(pyrrolidin-3-yloxy)acetamide]
- EC50 [1, 4]: < 1 µM
- IC50 ([2]; read-out: PI3K Alpha IC50): < 1 µM
- EC50 [3, 5]: < 1 µM

SMILES: COc1nc(-c2ccc3nc(NC(C)=O)cn3n2)cnc1N [Example 130, N-(6-(5-amino-6-methoxypyrazin-2-yl)imidazo[1,2-b]pyridazin-2-yl)acetamide]
- EC50 [1, 4]: < 10 µM
- IC50 ([2]; read-out: PI3K Alpha IC50): < 1 µM
- EC50 [3, 5]: < 1 µM

SMILES: CC(=O)Nc1cn2cc(-c3cnc(N)c(-c4ccc(OC(F)(F)F)cc4)c3)ccc2n1 [Example 97, N-(6-(6-amino-5-(4-(trifluoromethoxy)phenyl)pyridin-3-yl)imidazo[1,2-a]pyridin-2-yl)acetamide]
- EC50 [1, 4]: < 1 µM
- IC50 ([2]; read-out: PI3K Alpha IC50): < 1 µM
- EC50 [3, 5]: < 10 µM

SMILES: CCCNc1ccc(-c2ccc3nc(NC(C)=O)sc3c2)cn1 [Example 2-7, N-[6-(6-Propylamino-pyridin-3-yl)-benzothiazol-2-yl]-acetamide]
- EC50 [1, 6]: < 25 µM
- IC50 [2, 7]: < 1 µM
- EC50 [3, 8]: < 1 µM

SMILES: CC(=O)Nc1cn2cc(-c3cnc(N)c(OC4CN(C(=O)OC(C)(C)C)C4)n3)ccc2n1 [Example 67, tert-butyl 3-(6-(2-acetamido-imidazo[1,2-a]pyridin-6-yl)-3-aminopyrazin-2-yloxy)axetidine-1-carboxylate]
- EC50 [1, 4]: < 1 µM
- IC50 ([2]; read-out: PI3K Alpha IC50): < 1 µM
- EC50 [3, 5]: < 1 µM

SMILES: CNCC(=O)Nc1cn2cc(-c3cnc(N)c(OCCOC)n3)ccc2n1 [Example 122, N-(6-(5-amino-6-(2-methoxyethoxy)pyrazin-2-yl)imidazo[1,2-a]pyridin-2-yl)-2-(methylamino) acetamide]
- EC50 [1, 4]: < 10 µM
- IC50 ([2]; read-out: PI3K Alpha IC50): < 1 µM
- EC50 [3, 5]: < 1 µM

SMILES: CC(=O)Nc1cn2cc(-c3cnc(N)c(-c4ccccc4C(F)(F)F)c3)ccc2n1 [Example 120, N-(6-(6-amino-5-(2-(trifluoromethyl)phenyl)pyridin-3-yl)imidazo[1,2-a]pyridin-2-yl)acetamide]
- EC50 [1, 4]: < 10 µM
- IC50 ([2]; read-out: PI3K Alpha IC50): < 1 µM
- EC50 [3, 5]: < 1 µM

SMILES: CC(=O)Nc1cn2c(C)c(-c3cnc(N)c(C(F)(F)F)c3)ccc2n1 [Example 194, N-(6-(6-amino-5-(trifluoromethyl)pyridin-3-yl)-5-methylimidazo[1,2-a]pyridin-2-yl)acetamide]
- EC50 [1, 4]: < 10 µM
- IC50 ([2]; read-out: PI3K Alpha IC50): < 1 µM
- EC50 [3, 5]: < 10 µM

SMILES: CC(=O)Nc1cn2cc(-c3cnc(N)c(OC4CCC4)n3)ccc2n1 [Example 64, N-(6-(5-amino-6-cyclobutoxy-pyrazin-2-yl)imidazo[1,2-a]pyridin-2-yl)acetamide]
- EC50 [1, 4]: < 1 µM
- IC50 ([2]; read-out: PI3K Alpha IC50): < 1 µM
- EC50 [3, 5]: < 1 µM

SMILES: CCOCC(=O)Nc1cn2nc(-c3cnc(N)c(C(F)(F)F)c3)ccc2n1 [Example 118, N-(6-(6-amino-5-(trifluoromethyl)pyridin-3-yl)imidazo[1,2-b]pyridazin-2-yl)-2-ethoxyacetamide]
- EC50 [1, 4]: < 10 µM
- IC50 ([2]; read-out: PI3K Alpha IC50): < 1 µM
- EC50 [3, 5]: < 1 µM

SMILES: CC(C)(C)OC(=O)N1CC[C@@H](OCC(=O)Nc2cn3nc(-c4cnc(N)c(C(F)(F)F)c4)ccc3n2)C1 [Example 102, (R)-tert-butyl 3-(2-(6-(6-amino-5-(trifluoromethyl)pyridin-3-yl)imidazo[1,2-b]pyridazin-2-ylamino)-2-oxoethoxy) pyrrolidine-1-carboxylate]
- EC50 [1, 4]: < 1 µM
- IC50 ([2]; read-out: PI3K Alpha IC50): < 1 µM
- EC50 [3, 5]: < 1 µM

SMILES: COC(=O)Nc1cn2cc(-c3cnc(N)c(C(F)(F)F)c3)ccc2n1 [Example 19, [6-(6-Amino-5-trifluoromethyl-pyridin-3-yl)-imidazo[1,2-a]pyridin-2-yl]-carbamic acid methyl ester]
- EC50 [1, 4]: < 10 µM
- IC50 ([2]; read-out: PI3K Alpha IC50): < 1 µM
- EC50 [3, 5]: < 1 µM

SMILES: Nc1ncc(-c2ccc3nc(NC(=O)C(F)(F)F)cn3c2)cn1 [Example 2, N-[6-(2-Amino-pyrimidin-5-yl)-imidazo[1,2-a]pyridin-2-yl]-2,2,2-trifluoro-acetamide]
- EC50 [1, 4]: < 25 µM
- IC50 ([2]; read-out: PI3K Alpha IC50): < 1 µM
- EC50 [3, 5]: < 25 µM

SMILES: CC(=O)Nc1nc2ccc(-c3cnc(N)c(C(F)(F)F)c3)cn2c1C#N [Example 32, N-[6-(6-Amino-5-trifluoromethyl-pyridin-3-yl)-3-cyano-imidazo[1,2-a]pyridin-2-yl]-acetamide]
- EC50 [1, 4]: < 1 µM
- IC50 ([2]; read-out: PI3K Alpha IC50): < 1 µM
- EC50 [3, 5]: < 1 µM

SMILES: CC(=O)Nc1nc2ccc(-c3cnc(N)c(C(F)(F)F)c3)cn2c1-c1ccc(C(N)=O)cc1 [Example 13, 4-[2-Acetylamino-6-(6-amino-5-trifluoromethyl-pyridin-3-yl)-imidazo[1,2-a]pyridin-3-yl]-benzamide]
- EC50 [1, 4]: < 25 µM
- IC50 ([2]; read-out: PI3K Alpha IC50): < 1 µM
- EC50 [3, 5]: < 25 µM

SMILES: COc1cc(-c2ccc3nc(NC(C)=O)cn3c2)c(C)nc1N [Example 33, N-(6-(6-amino-5-methoxy-2-methylpyridin-3-yl)imidazo[1,2-a]pyridin-2-yl)acetamide]
- EC50 [1, 4]: < 10 µM
- IC50 ([2]; read-out: PI3K Alpha IC50): > 25 µM
- EC50 [3, 5]: < 25 µM

SMILES: Nc1ncc(-c2ccc3nc(NC(=O)CN4CCCCC4)cn3n2)cc1C(F)(F)F [Example 133, N-(6-(6-amino-5-(trifluoromethyl)pyridin-3-yl)imidazo[1,2-b]pyridazin-2-yl)-2-(piperidin-1-yl)acetamide]
- EC50 [1, 4]: < 10 µM
- IC50 ([2]; read-out: PI3K Alpha IC50): < 1 µM
- EC50 [3, 5]: < 1 µM

SMILES: CC(=O)Nc1cn2cc(-c3cnc(N)c(-c4ccccc4)c3)ccc2n1 [Example 124, N-(6-(6-amino-5-phenylpyridin-3-yl)imidazo[1,2-a]pyridin-2-yl)acetamide]
- EC50 [1, 4]: < 10 µM
- IC50 ([2]; read-out: PI3K Alpha IC50): < 1 µM
- EC50 [3, 5]: < 1 µM

SMILES: CC(=O)Nc1nc2ccc(-c3cnc(N)c(C(F)(F)F)c3)cn2c1C#CCN1CCOCC1 [Example 213, N-(6-(6-amino-5-(trifluoromethyl)pyridin-3-yl)-3-(3-morpholino-prop-1-ynyl)imidazo[1,2-a]pyridin-2-yl)acetamide]
- EC50 [1, 4]: < 10 µM
- IC50 ([2]; read-out: PI3K Alpha IC50): < 1 µM
- EC50 [3, 5]: < 10 µM

SMILES: CC(=O)Nc1nc2ccc(-c3cnc(N)c(C(F)(F)F)c3)cn2c1C#Cc1ccccn1 [Example 241, N-(6-(6-amino-5-(trifluoromethyl)pyridin-3-yl)-3-(pyridin-2-ylethnyl)imi-dazo[1,2-a]pyridin-2-yl)acetamide]
- EC50 ([1]; A2780, read-out: A2780 Cell prolif. EC50): < 10 µM
- IC50 [2]: < 1 µM
- EC50 ([3]; A2780, read-out: A2780 pAKT 473 EC50): < 10 µM

SMILES: CC(=O)Nc1cn2cc(-c3cnc(N)c(C)c3)ccc2n1 [Example 208, N-(6-(6-amino-5-methylpyridin-3-yl)imidazo[1,2-a]pyridin-2-yl)acetamide]
- EC50 [1, 4]: < 10 µM
- IC50 ([2]; read-out: PI3K Alpha IC50): < 1 µM
- EC50 [3, 5]: < 1 µM

SMILES: NCC(=O)Nc1cn2nc(-c3cnc(N)c(C(F)(F)F)c3)ccc2n1 [Example 77, 2-amino-N-(6-(6-amino-5-(trifluoromethyl)pyridin-3-yl)imidazo[1,2-b]pyridazin-2-yl)acetamide]
- EC50 [1, 4]: < 1 µM
- IC50 ([2]; read-out: PI3K Alpha IC50): < 1 µM
- EC50 [3, 5]: < 1 µM

SMILES: Nc1ccc(-c2ccc3nc(NC(=O)CN4CCOCC4)sc3c2)cn1 [Example 2-16, N-[6-(6-Amino-pyridin-3-yl)-benzothiazol-2-yl]-2-morpholin-4-yl-acetamide]
- EC50 [1, 6]: < 25 µM
- IC50 [2, 7]: < 1 µM
- EC50 [3, 8]: < 1 µM

SMILES: Nc1ncc(-c2ccc3nc(NC(=O)CCCN4CCOCC4)sc3c2)cn1 [Example 2-11, N-[6-(2-Amino-pyrimidin-5-yl)-benzothiazol-2-yl]-4-morpholin-4-yl-butyramide]
- EC50 [1, 6]: < 10 µM
- IC50 [2, 7]: < 1 µM
- EC50 [3, 8]: < 1 µM

SMILES: Nc1ncc(-c2ccc3nc(NC(=O)CO[C@@H]4CCNC4)cn3n2)cc1C(F)(F)F [Example 69, (R)-N-(6-(6-amino-5-(trifluoromethyl)pyridin-3-yl)imidazo[1,2-b]pyridazin-2-yl)-2-(pyrrolidin-3-yloxy)acetamide]
- EC50 [1, 4]: < 1 µM
- IC50 ([2]; read-out: PI3K Alpha IC50): < 1 µM
- EC50 [3, 5]: < 1 µM
